Blank lines part the entries; values can stand above or below the compound they belong to.
Experiments:
[1] = target: T1, human GPR32 (RvD1 Receptor) (Homo sapiens, UniProt O75388); assay: Beta-Arrestin PathHunter GPR32 activation assay; type: cell-based; conditions: CHO-GPR32 cells, 1 h at 37° C., chemiluminescence
T1 construct: host or cells: CHO cells (CHO-GPR32)
Method: (§1) Ligand receptor interactions were monitored using the Beta-Arrestin PathHunter eXpress System™ (DiscoverX, Fremont, Calif.) and carried out with CHO cells stably overexpressing recombinant human GPR32 receptors. CHO-GPR32 cells were plated onto 96-well plates 24 h prior to experiments. Test compounds at indicated concentrations were incubated with cells for 1 h at 37° C. and receptor activation was determined by measuring chemiluminescence using the PathHunter detection kit. The results of this experiment are expressed as % increase of chemiluminescence above vehicle control (FIG. 2). Results are mean from 3 or 4 independent experiments and 3 replicates in each experiment.

peritoneal lavage cells = assay: Cell count in mouse peritonitis model (zymosan); type: in vivo
Human Mϕ = assay: Human macrophage phagocytosis of live E. coli; type: cell-based; conditions: BacLight Green-labeled E. coli, fluorescence
Method: Human Mϕ were plated onto chamber slides (0.1×10^6 cells/well), incubated with RvD1, compound (10 nM), or vehicle alone for 15 min at 37° C., followed by addition of BacLight Green-labeled E. coli to initiate phagocytosis. Fluorescent images were then recorded every 10 min for 120 min (37° C.) using Keyence BZ-9000 (BIOREVO) inverted fluorescence phase-contrast microscope (40× objective) equipped with a monochrome/color switching camera using BZ-II Viewer software (Keyence, Itasca, Ill., USA). Green fluorescence intensity was quantified using BZ-II Analyzer. Results are recordings of mean fluorescence intensity (MFI) from one representative donor (FIG. 6). Human Mϕ were plated onto 96-well plates (5×10^4 cells/well), incubated with RvD1, compound (1 pM-100 nM) or vehicle alone for 15 min at 37° C., followed by addition of BacLight Green-labeled E. coli (E. coli:Mϕ=50:1) to initiate phagocytosis. One hour later, fluorescence associated with Mϕ was determined using a microplate reader. Results are expressed as percent increase above vehicle (E. coli alone); mean from 4 separate experiments (FIG. 7).

PMN = PMN clearance in vivo, E. coli initiated peritonitis; set-up: species or system mouse
Method: FVB mice (male, 6 wks old) were inoculated with E. coli (10^5 CFU). […] Total leukocytes were enumerated using light microscopy and PMN numbers were determined by flow cytometry. […] Resolution indices were calculated using PMN numbers.

[2] = target: T2, human recombinant CB1 receptor (Homo sapiens, UniProt P21554); assay: CB1 radioligand binding assay
T2 construct: expressed in transfected cells; host or cells: Chem cells (membrane homogenates)
T2 sequence (P21554 whole entry): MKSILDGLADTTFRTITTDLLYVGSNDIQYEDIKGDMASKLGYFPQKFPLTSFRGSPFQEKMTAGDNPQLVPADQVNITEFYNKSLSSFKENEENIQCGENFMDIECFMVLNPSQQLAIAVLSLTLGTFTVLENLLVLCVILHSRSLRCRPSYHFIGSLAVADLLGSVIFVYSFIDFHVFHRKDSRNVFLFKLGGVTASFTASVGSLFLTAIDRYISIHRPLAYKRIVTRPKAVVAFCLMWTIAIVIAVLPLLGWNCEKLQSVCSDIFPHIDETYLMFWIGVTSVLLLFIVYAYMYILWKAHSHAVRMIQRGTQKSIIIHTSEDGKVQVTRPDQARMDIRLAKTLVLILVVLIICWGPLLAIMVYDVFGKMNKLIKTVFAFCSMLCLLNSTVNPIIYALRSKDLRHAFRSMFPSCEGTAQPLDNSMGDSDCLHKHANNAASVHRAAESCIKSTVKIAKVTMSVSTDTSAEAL
Method: (§2) The binding affinity (% inhibition, K) of each of Compounds (1) and (2) for the CB1 and CB2 receptors was determined by a competitive radioligand binding assay. […] By comparison, no binding of the free acid to either the CB1 or CB2 receptors was observed (FIG. 5). The radioligand binding assays were performed as described below.
CB1 Radioligand Binding Assay: Cell membrane homogenates (5 μg protein) prepared from Chem cells expressing human recombinant CB1 receptor were incubated for 30 min at 22° C. with 2 nM [^3H]CP 55940 (CB1/CB2 radioligand) in the absence or presence of the test compound in a buffer containing 50 mM Tris-HCl (pH 7.4), 5 mM MgCl2, 2.5 mM EDTA and 0.3% BSA. Nonspecific binding is determined in the presence of 10 μM WIN 55212-2. Each compound was tested in 8 concentrations. For each concentration, % Inhibition was determined as a function of radioligand specific binding to the CB1 receptor. The K was determined from the concentration-response curve of each tested compound.
(§3) Further details for determining the binding affinity of compounds for a cannabinoid receptor by competitive radioligand binding can be found in the literature, for example, in Rinaldi-Carmona M, et al. Characterization of two cloned human CB1 cannabinoid receptors isoform. […]

[3] = target: T3, human ALX/FPR2 (LXA4 Receptor) (Homo sapiens, UniProt P25090); assay: Beta-Arrestin PathHunter ALX/FPR2 activation assay; type: cell-based; conditions: HEK-ALX cells, 1 h at 37° C., chemiluminescence
T3 construct: host or cells: HEK cells (HEK-ALX)
T3 sequence (P25090 1-351): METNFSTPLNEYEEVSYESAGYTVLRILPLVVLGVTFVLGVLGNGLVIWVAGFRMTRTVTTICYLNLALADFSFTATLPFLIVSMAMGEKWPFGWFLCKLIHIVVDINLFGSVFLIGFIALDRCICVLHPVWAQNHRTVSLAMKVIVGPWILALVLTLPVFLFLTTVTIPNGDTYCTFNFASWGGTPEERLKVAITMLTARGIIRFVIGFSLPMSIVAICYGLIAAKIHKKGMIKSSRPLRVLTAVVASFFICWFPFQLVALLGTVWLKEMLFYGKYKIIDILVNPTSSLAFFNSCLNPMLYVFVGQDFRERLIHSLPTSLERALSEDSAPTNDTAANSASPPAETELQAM
Method: as §1, with “HEK” for “CHO”, “ALX” for “GPR32”, “HEK-ALX” for “CHO-GPR32”, “Results” for “The results of this experiment”, “3).” for “2).”

[4] = target: T4, human recombinant CB2 receptor (Homo sapiens, UniProt P34972); assay: CB2 radioligand binding assay
T4 construct: expressed in transfected cells; host or cells: CHO cells (membrane homogenates)
T4 sequence (P34972 whole entry): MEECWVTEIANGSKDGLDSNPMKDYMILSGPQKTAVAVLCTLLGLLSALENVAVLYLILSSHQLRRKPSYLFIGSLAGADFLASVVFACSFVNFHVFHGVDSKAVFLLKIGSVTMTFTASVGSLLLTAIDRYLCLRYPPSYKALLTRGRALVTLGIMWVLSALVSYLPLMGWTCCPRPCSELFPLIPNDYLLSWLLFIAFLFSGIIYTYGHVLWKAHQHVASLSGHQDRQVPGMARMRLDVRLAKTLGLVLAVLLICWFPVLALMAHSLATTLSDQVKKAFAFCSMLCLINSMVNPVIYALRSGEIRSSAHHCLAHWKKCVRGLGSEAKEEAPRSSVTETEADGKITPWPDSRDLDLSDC
Method: as §2
CB2 Radioligand Binding Assay: Cell membrane homogenates (12 μg protein) prepared from CHO cells expressing human recombinant CB2 receptor were incubated for 120 min at 37° C. with 0.8 nM [^3H]WIN 55212-2 (CB1/CB2 radioligand) in the absence or presence of the test compound in a buffer containing 50 mM Hepes/Tris (pH 7.4), 5 mM MgCl2, 2.5 mM EGTA and 0.1% BSA. Nonspecific binding was determined in the presence of 5 μM WIN 55212-2. Each compound was tested in 8 concentrations. For each concentration, % Inhibition was determined as a function of radioligand specific binding to the CB2 receptor. The K was determined from the concentration-response curve of each tested compound.
as §3

[5] = Rat pharmacokinetic study; type: in vivo; conditions: SD rats, IV 0.3 mg/kg
Method: Sprague Dawley (SD) rats (n=3/group) were administered either compound (1) or compound (2) orally at 10 mg/kg (5% ethanol, 5% VE-TPGS, 90% PEG400) or intravenously at 0.3 mg/kg (5% NMP, 95% PEG400). The resulting individual and mean plasma concentration-time was measured for the free acid, compound (2), with the data provided in Tables 4-7.

[6] = 24 h post-zymosan, 0.1 μg/mouse
[7] = FVB mice, 100 ng i.p. 12 h after inoculation

T1 sequence (O75388 whole entry): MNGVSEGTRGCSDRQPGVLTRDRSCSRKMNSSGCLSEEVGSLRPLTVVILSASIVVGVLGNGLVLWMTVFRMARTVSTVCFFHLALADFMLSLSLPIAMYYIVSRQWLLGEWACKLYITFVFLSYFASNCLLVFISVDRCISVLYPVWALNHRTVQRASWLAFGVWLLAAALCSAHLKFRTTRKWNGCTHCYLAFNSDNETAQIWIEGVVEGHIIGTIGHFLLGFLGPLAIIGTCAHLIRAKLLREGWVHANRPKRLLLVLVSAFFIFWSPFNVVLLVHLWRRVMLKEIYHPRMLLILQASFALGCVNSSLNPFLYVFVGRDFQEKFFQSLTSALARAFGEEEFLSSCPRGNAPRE

- activation of human GPR32 (RvD1 Receptor) [1]: activates
- Ki ([2]; [3H]CP 55940 competition, read-out: K (binding affinity) CB1 receptor): > 5 µM
- activation of human ALX/FPR2 (LXA4 Receptor) [3]: activates
- Ki ([4]; [3H]WIN 55212-2 competition, read-out: K (binding affinity) CB2 receptor): 630 nM
- plasma Concentration of compound (2), Individual ([5]; 8 hr, 0.3 mg/kg): BQL
- plasma Concentration of compound (2), Individual ([5]; 12 hr, 0.3 mg/kg): BQL
- plasma Concentration of compound (2), Individual ([5]; 24 hr): BQL
- plasma Concentration of compound (2), Mean ([5]; 24 hr): BQL
SMILES: O=C1COC[C@@H]([C@H](O)/C=C/C=C/C#C/C=C/[C@H](O)COc2ccc(F)cc2)O1 [Compound (1), (S)-6-((1R,2E,4E,8E,10S)-11-(4-fluorophenoxy)-1,10-dihydroxyundeca-2,4,8-trien-6-yn-1-yl)-1,4-dioxan-2-one]
- Estimated PMNs (peritoneal lavage cells; 3 h post-zymosan, 0.1 μg/mouse): 5977.50 10^3/ml
- Granulocytes Counted (100 cells) (peritoneal lavage cells; 3 h post-zymosan, 0.1 μg/mouse): 96.4
- Mononuclear Counted (100 cells) (peritoneal lavage cells; 3 h post-zymosan, 0.1 μg/mouse): 3.6
- Nucleated Cells (peritoneal lavage cells; 3 h post-zymosan, 0.1 μg/mouse): 6165.00 10^3/ml
- Estimated PMNs (peritoneal lavage cells; 3 h post-zymosan, 10 μg/mouse): *4012.13 10^3/ml
- Granulocytes Counted (100 cells) (peritoneal lavage cells; 3 h post-zymosan, 10 μg/mouse): 95.0
- Mononuclear Counted (100 cells) (peritoneal lavage cells; 3 h post-zymosan, 10 μg/mouse): 5.0
- Nucleated Cells (peritoneal lavage cells; 3 h post-zymosan, 10 μg/mouse): *4237.50 10^3/ml
- Estimated PMNs (peritoneal lavage cells; [6]): 14672.70 10^3/ml
- Granulocytes Counted (100 cells) (peritoneal lavage cells; [6]): 88.8
- Mononuclear Counted (100 cells) (peritoneal lavage cells; [6]): 11.2
- Nucleated Cells (peritoneal lavage cells; [6]): 16380.00 10^3/ml
- human macrophage phagocytosis of live E. coli (Human Mϕ): enhances
- Resolution Interval (PMN; [7]): 11 h
- T50 (PMN; [7]): 23 h
- Tmax (PMN; [7]): 12 h
- reduction of Tmax (PMN; vs E. coli alone): 50%

- binding to CB1 receptor ([2]; radioligand binding): no binding
- binding to CB2 receptor ([4]; radioligand binding): no binding
- plasma Concentration of compound (2), Individual ([5]; 12 hr, 0.3 mg/kg): BQL
- plasma Concentration of compound (2), Individual ([5]; 24 hr): BQL
- plasma Concentration of compound (2), Mean ([5]; 24 hr): BQL
SMILES: O=C(O)COC[C@H](O)[C@H](O)/C=C/C=C/C#C/C=C/[C@H](O)COc1ccc(F)cc1 [Compound (2), 2-(((2S,3R,4E,6E,10E,12S)-13-(4-fluorophenoxy)-2,3,12-trihydroxytrideca-4,6,10-trien-8-yn-1-yl)oxy)acetic acid, reference compound]

SMILES: CC/C=C\C[C@H](O)/C=C/C=C\C=C\C=C\[C@@H](O)[C@@H](O)C/C=C\CCC(=O)O [RvD1, resolvin D1, reference compound]
- Estimated PMNs (peritoneal lavage cells; 3 h post-zymosan, 0.1 μg/mouse): 5723.25 10^3/ml
- Granulocytes Counted (100 cells) (peritoneal lavage cells; 3 h post-zymosan, 0.1 μg/mouse): 89.8
- Mononuclear Counted (100 cells) (peritoneal lavage cells; 3 h post-zymosan, 0.1 μg/mouse): 10.8
- Nucleated Cells (peritoneal lavage cells; 3 h post-zymosan, 0.1 μg/mouse): 6375.00 10^3/ml
- Estimated PMNs (peritoneal lavage cells; 3 h post-zymosan, 1 μg/mouse): 6685.13 10^3/ml
- Granulocytes Counted (100 cells) (peritoneal lavage cells; 3 h post-zymosan, 1 μg/mouse): 96.3
- Mononuclear Counted (100 cells) (peritoneal lavage cells; 3 h post-zymosan, 1 μg/mouse): 3.8
- Nucleated Cells (peritoneal lavage cells; 3 h post-zymosan, 1 μg/mouse): 6232.50 10^3/ml
- Estimated PMNs (peritoneal lavage cells; 24 h post-zymosan, 1 μg/mouse): 11496.23 10^3/ml
- Granulocytes Counted (100 cells) (peritoneal lavage cells; 24 h post-zymosan, 1 μg/mouse): 86.6
- Mononuclear Counted (100 cells) (peritoneal lavage cells; 24 h post-zymosan, 1 μg/mouse): 13.4
- Nucleated Cells (peritoneal lavage cells; 24 h post-zymosan, 1 μg/mouse): 13267.50 10^3/ml
